Read-outs that look alike come from different tables or passages of the source. Non-standard residues stand in square brackets, D forms with d. Residues, ends and D or L forms follow the SMILES beside them. *: point of attachment. Sta = CC(C)C[C@H](N)[C@@H](O)CC(=O)O; Isovaleryl = CC(C)CC(=O)*
Legend:
R-ChHNL [1] = target: T1, R-ChHNL (Chamberlinius hualienensis, UniProt A0A0H5BR52); test: Search of inhibitor of R-ChHNL activity (remaining activity); format: biochemical
[2] = Decomposition reaction from racemic mandelonitrile to benzaldehyde, absorbance at 280 nm; format: biochemical, Chamberlinius hualienensis; settings: purified enzyme; decomposition: 2 mM racemic mandelonitrile, pH 5.0-5.5, 22° C.
[3] = format: biochemical, Chamberlinius hualienensis
Experimental: The stability to temperature was measured by performing the reaction in a reaction mixture of pH 7.0 at the temperature range of 0 to 70° C. for 1 hour. In addition, the reaction was similarly performed except that the reaction temperature was adjusted to 20° C. and pH was changed in the range of 3 to 11. In the reaction, citrate-phosphate buffer was used when pH was 3 to 8, and glycine-NaOH buffer was used when pH was 8 to 11. The enzyme activity was measured according to the method described in Dadashipour et al. (2011). […] In addition, the relation between the reaction temperature and the remaining activity and the relation between the reaction pH and the remaining activity of both R-ChHNLs are respectively shown in FIG. 7(A) and FIG. 7(B).

R-ChHNL [4] = target: T1, R-ChHNL; test: Dynamic (kinetic) analysis, aldehyde substrates, Hanes-Woolf plot; settings: aldehydes other than benzaldehyde; for Km / Vmax / kcat / max S.A. (specific activity): condition similar to the above-described condition; for relative S.A.: relative to benzaldehyde at pH 5.2 and 22° C.
[5] = tested on: S-HNL derived from Baliospermum; settings: cited from earlier work
R-ChHNL [6] = target: T1, R-ChHNL; test: Dynamic (kinetic) analysis, racemic mandelonitrile as substrate (decomposition reaction); format: biochemical
[7] = 100 μg/mL, pH 7.0, 20° C., 60 minutes
[8] = concentration not given (1 mM or 0.1 mM), pH 7.0, 20° C., 60 minutes
[9] = 10 mM, pH 7.0, 20° C., 60 minutes

Compound: oxidized glutathione
- Remaining activity (R-ChHNL [1]; 0.5 mM, pH 7.0, 20° C., 60 minutes): 95%

Compound: CC(C)CC(=O)N[C@H](C(=O)N[C@H](C(=O)N[C@@H](CC(C)C)[C@@H](O)CC(=O)N[C@@H](C)C(=O)N[C@@H](CC(C)C)[C@@H](O)CC(=O)O)C(C)C)C(C)C [pepstatin A] (Isovaleryl-VV[Sta]A[Sta]-OH)
- Remaining activity (R-ChHNL [1]; [7]): 89%

Compound: R-ChHNL: (R)-hydroxynitrile lyase purified from Chamberlinius hualienensis, amino acid sequence SEQ ID NO: 3, homodimer
- activity in cyanohydrin synthesis direction relative to activity in cyanohydrin decomposition reaction [2]: 2.6 times
- stability to pH (remaining activity) [3]: stability in broad pH range
- pH of maximum activity ([3]; 20° C., pH 3 to 11, FIG. 5): 5.8
- activity after heating at 60° C. ([3]; 60° C. for 1 hour or longer, FIG. 6): maintained
- activity maintained after heating at 75° C. ([3]; 75° C. for 1 hour): 20%
- optimum temperature ([3]; FIG. 6): 35 °
- temperature at which high activity is exhibited ([3]; FIG. 6): ≤ 60 °C
- activity at pH 4 as share of maximum activity value ([3]; pH 4, FIG. 5): about 10%

Compound: CC(=O)N[C@@H](CC(C)C)C(=O)N[C@@H](CC(C)C)C(=O)N[C@H](C=O)CCCNC(=N)N [leupeptin]
- remaining activity at 100 µg/mL (R-ChHNL [1]; [7]): 86%

Compound: COc1cccc(C=O)c1 [3-methoxybenzaldehyde]
- Km (R-ChHNL [4]): 5.7 mM
- Vmax (R-ChHNL [4]): 3228.2 µmol/min/mg
- kcat (R-ChHNL [4]): 1337 s⁻¹
- max S.A. (specific activity) (R-ChHNL [4]): 3326 U/mg
- relative S.A. (R-ChHNL [4]): 44.7

Compound: [Cl][Ni][Cl] [NiCl2]
- Remaining activity (R-ChHNL [1]; [8]): 93%

Compound: O=Cc1ccc(Br)cc1 [4-bromobenzaldehyde]
- Km (R-ChHNL [4]): 9.5 mM
- Vmax (R-ChHNL [4]): 19940 µmol/min/mg
- kcat (R-ChHNL [4]): 8259 s⁻¹
- max S.A. (specific activity) (R-ChHNL [4]): 17375 U/mg
- relative S.A. (R-ChHNL [4]): 233.8

Compound: N.N#CS [ammonium thiocyanate]
- inhibition of S-HNL [5]: strongly inhibits

Compound: NC(=O)CI [iodoacetamide]
- remaining activity at 1000 µM (R-ChHNL [1]; 1 mM, pH 7.0, 20° C., 60 minutes, read-out: Remaining activity): 75%
- remaining activity at 10000 µM (R-ChHNL [1]; 10 mM, pH 7.0, 20° C., 60 minutes, read-out: Remaining activity): 28%
- inhibition of the activity of R-ChHNL (R-ChHNL [1]; concentration increased to 10 mM): inhibit

Compound: O=C(O)CN(CCN(CC(=O)O)CC(=O)O)CC(=O)O [EDTA]
- Remaining activity (R-ChHNL [1]; [9]): 100%

Compound: [Cl-].[Cl-].[Co+2] [CoCl2]
- Remaining activity (R-ChHNL [1]; pH 7): 95%

Compound: O=S(=O)(F)Cc1ccccc1 [phenylmethylsulfonyl fluoride (PMSF), phenylmethylsulfonyl fluoride]
- Remaining activity (R-ChHNL [1]; 1 mM, pH 7.0, 20° C., 60 minutes): 91%
- Remaining activity (R-ChHNL [1]; [9]): 60%

Compound: Cc1ccc(C=O)cc1 [4-methylbenzaldehyde]
- max S.A. (specific activity) (R-ChHNL [4]): 11072 U/mg
- relative S.A. (R-ChHNL [4]): 149.0

Compound: OCCS [2-mercaptoethanol]
- Remaining activity (R-ChHNL [1]; [9]): 95%

Compound: N#CC(O)c1ccccc1 (racemic) [racemic mandelonitrile, mandelonitrile]
- Km (R-ChHNL [6]): 5.5 mM
- Vmax (R-ChHNL [6]): 2819 µmol/min/mg
- kcat (R-ChHNL [6]): 1168 s⁻¹
- max S.A. (specific activity) (R-ChHNL [6]): 1896 U/mg

Compound: O=Cc1ccc2c(c1)OCO2 [piperonal]
- Km (R-ChHNL [4]): 5.6 mM
- Vmax (R-ChHNL [4]): 3006.6 µmol/min/mg
- kcat (R-ChHNL [4]): 1245.2 s⁻¹
- max S.A. (specific activity) (R-ChHNL [4]): 2748 U/mg
- relative S.A. (R-ChHNL [4]): 37.0

Compound: COc1ccc(C=O)cc1 [4-methoxybenzaldehyde]
- Km (R-ChHNL [4]): 6.7 mM
- Vmax (R-ChHNL [4]): 7482 µmol/min/mg
- kcat (R-ChHNL [4]): 3099 s⁻¹
- max S.A. (specific activity) (R-ChHNL [4]): 6849 U/mg
- relative S.A. (R-ChHNL [4]): 92.1

Compound: [Cl][Cr]([Cl])[Cl] [CrCl3]
- Remaining activity (R-ChHNL [1]; [8]): 88%

Compound: CCC1(CC)C(=O)NC(=O)NC1=O [barbital sodium]
- Remaining activity (R-ChHNL [1]; [8]): 93%

Compound: O=C(O)CI [iodoacetic acid]
- inhibition of the activity of R-ChHNL (R-ChHNL [1]): inhibit
- remaining activity at 1000 µM (R-ChHNL [1]; pH 7): 52%
- remaining activity at 10000 µM (R-ChHNL [1]; pH 7): 18%

Compound: O=C(O)c1cc[c]([Hg][Cl])cc1 [p-chloromercuribenzoic acid]
- Remaining activity (R-ChHNL [1]; [8]): 100%

Compound: O=Cc1cccc2ccccc12 [1-naphthalenecarboxaldehyde]
- max S.A. (specific activity) (R-ChHNL [4]): 326 U/mg
- relative S.A. (R-ChHNL [4]): 4.4

Compound: O=S(=O)([O-])[O-].[Cu+2] [CuSO4]
- Remaining activity (R-ChHNL [1]; [8]): 100%
